Reference: patent publication US9951183B2, “Amphiphilic blockcopolymers comprising reduction sensitive biodegradable polyesteramides” (DSM IP Assets B.V., priority 2014, dated 2018)

What was measured:
[1] = test system: HeLa cells; assay: Cellular uptake and intracellular release of DOX (CLSM); type: cell-based; conditions: DOX 12.5 μg/mL
Experimental: HeLa cells are plated on microscope slides in a 24-well plate (5×10^4 cells/well) under 5% CO2 atmosphere at 37° C. using Dulbecco's modified Eagle's medium (DMEM) supplemented with 10% fetal bovine serum, 1% L-glutamine, antibiotics penicillin (100 IU/mL), and streptomycin (100 μg/mL). […] After incubation at 37° C. and a humidified 5% CO2-containing atmosphere for 0.5, 2 or 4 h, the culture media are removed and the cells on microscope plates are washed three times with PBS. The cells are then fixed with 4% formaldehyde for 15 min and washed with PBS 3 times. The cell nuclei are stained with 4′,6-diamidino-2-phenylindole (DAPI, blue) for 15 min and washed with PBS 3 times.

[2] = test system: HeLa cells; assay: Cell viability MTT assay, HeLa; type: cell-based; conditions: DOX 12.5 μg/mL
Experimental: HeLa and MCF-7 cells are plated in a 96-well plate (1×10^4 cells/well) using DMEM medium supplemented with 10% fetal bovine serum, 1% L-glutamine, antibiotics penicillin (100 IU/mL), and streptomycin (100 μg/mL) and incubation for 24 h. […] Then 3-(4,5-dimethylthiazol-2-yl)-2,5-diphenyl tetrazoliumbromide (MTT) solution in PBS (10 μL, 5 mg/mL) are added and incubated for another 4 h. The medium is aspirated, the MTT-formazan generated by live cells is dissolved in 150 μL of DMSO, and the absorbance at a wavelength of 490 nm of each well is measured using a microplate reader. The relative cell viability (%) is determined by comparing the absorbance at 490 nm with control wells containing only cell culture medium. Data are presented as average±SD (n=4).

COc1cccc2c1C(=O)c1c(O)c3c(c(O)c1C2=O)C[C@@](O)(C(=O)CO)C[C@@H]3O[C@H]1C[C@H](N)[C@H](O)[C@H](C)O1 [free DOX, doxorubicin]
intracellular distribution of DOX [1]: mainly accumulated in cell nucleus | cell viability ([2]; 24 h): 31.8% | cell viability ([2]; 48 h): 19.1%
